Source: patent US7807202B2, “Compositions for treatment of viral-induced skin lesions and methods of using same” (priority 2003, dated 2010)

What was measured:
[1] = test system: common warts; assay: Case treatments of common warts on the hands by topical application (Examples 10-11); format: in vivo, human; conditions: Example 11, child, 15%
From the text: A child presented with common verrucae on the dorsum of both hands involving the metacarpal-phalangeal joints for over 3 years. […] After 12 weeks, all warty lesions were gone. Twice a week the warts were gently scrubbed with a stiff nylon bristle brush before application of the tea tree oil emulsion to help remove the dead outer keratinized skin.
A child presented with common warts affecting the palms of both hands resistant to treatment. […] Twice weekly gentle scrubbing with a stiff nylon bristle brush before application of the emulsion to help remove the dead outer keratinized skin was performed.

[2] = test system: Molluscum contagiosum; conditions: in vivo; cited from earlier work

| Structure (SMILES) | outcome of earlier conventional treatment of common warts [1] | outcome of earlier conventional treatment of common warts ([1]; listed as salicylic acid) | effect on lesions caused by Molluscum contagiosum [2] |
| --- | --- | --- | --- |
| O=C(O)c1ccccc1O [Salicyclic acid] | the warts multiplied and spread | failed to eradicate the viral lesions | – |
| Nc1nc2c(ncn2COCCO)c(=O)[nH]1 [acyclovir] | – | – | no effect |
